Measurements from patent US11534434B2 (Karuna Therapeutics, Inc., priority 2019, dated 2022).

What was measured:
[1] = system: muscarinic acetylcholine receptor (mAChRs) human M1-M5 (hM1-hM5); conditions: pERK, CHO cells
From the text: In-Vitro Radioligand Binding Assays
The Flp-In™ cell lines are designed to generate stable cell lines that express a protein of interest from an Flp-In™ expression vector.
An extracellular signal-related kinase (ERK1/2 or p42/44) is a kinase in the mitogen-activated protein kinase (MAPK) family. Phosphorylation of ERK (pERK) can be used as a common endpoint measurement for the activation of many classes of G protein-coupled receptors (GPCR) and beta-arrestin linked signaling.
For the pERK assay, cells were serum-starved for 5 to 6 hours. Curves were normalized to the maximum response from the fetal bovine serum (FBS) medium corresponding to a 5-minute stimulation. A 5-minute incubation with the agonists was selected for the dose-response pERK assays (n=2).
Nonlinear regression curves were calculated per the three parameters method with no constraints.

[2] = Storage stability of the tartrate salt (reanalysis by LC-MS, 1H NMR, 19F NMR); format: physicochemical; conditions: six months of storage at 0° C.; LC-MS, 1H NMR, 19F NMR
Experimental: The tartrate salt of the title compound was unstable at test storage conditions. Although the initial NMR spectra were clean, the LCMS purity was about 75%. After storage at 0° C. for six months, the sample was reanalyzed by ^1H-NMR, ^19F-NMR, and LC-MS.

[2H]C([2H])([2H])C([2H])([2H])C([2H])([2H])C([2H])([2H])C([2H])([2H])C([2H])([2H])Oc1nsnc1C1=CCCN(C)C1 [Xanomeline-d13, 3-((Hexyl-1,1,2,2,3,3,4,4,5,5,6,6,6-d13)oxy)-4-(1-methyl-1,2,5,6-tetrahydropyridin-3-yl)-1,2,5-thiadiazole]
agonist profile at hM3, hM5, hM2 [1]: modestly potent partial agonists at mAChRs hM3>hM5>hM2 | agonist profile at hM4, hM1 [1]: efficacious partial agonist at hM4>hM1

FC(F)(F)CCCCCOc1nsnc1C1=CCCN(C(F)(F)F)C1 [Example 2, 3-((6,6,6-Trifluorohexyl)oxy)-4-(1-(trifluoromethyl)-1,2,5,6-tetrahydropyridin-3-yl)-1,2,5-thiadiazole]
storage stability of tartrate salt [2]: none of the title compound remained in the sample

[2H]C([2H])([2H])N1CCC=C(c2nsnc2OC([2H])([2H])C([2H])([2H])C([2H])([2H])C([2H])([2H])C([2H])([2H])C([2H])([2H])[2H])C1 [Xanomeline-d16, 3-((hexyl-1,1,2,2,3,3,4,4,5,5,6,6,6-d13)oxy)-4-(1-(methyl-d3)-1,2,5,6-tetrahydropyridin-3-yl)-1,2,5-thiadiazole]
agonist profile at hM3, hM5, hM2 [1]: modestly potent partial agonists at mAChRs hM3>hM5>hM2 | agonist profile at hM4, hM1 [1]: efficacious partial agonist at hM4>hM1
